Laboratory results: PubChem BioAssay AID1963423 (Molecular Pharmacology Branch, DTP, NCI, 2024)
Values joined by “and” are separate entries in the source; they are usually repeats but may differ in a detail not shown here. Equal entries are not always repeated. Each block holds one compound with its values, some of them ahead of it.

Tested on: 439559-082-T-J2-PDC complex spheroid growth
Experiment: Anticancer human tumor 439559-082-T-J2-PDC patient-derived colon adenocarcinoma cell line growth inhibition [Asc]
Settings: for viability, T/C: stronger effect = lower value
Summary of the method: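 Concentration series start at each agent's clinical Cmax, or at 10 microM when none is established, and drop in half-log steps; agents are applied alone or together to complex spheroids built with HUVEC and hMSC.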

[1] = curve of first compound, second compound 0.00316 µM
[2] = curve of first compound, second compound 0.01 µM
[3] = curve of first compound, second compound 0.0316 µM
[4] = curve of first compound, second compound 0.1 µM
[5] = curve of first compound, second compound 0.316 µM
[6] = curve of first compound, second compound 1 µM
[7] = second compound 0.00316 µM, first compound 0.0316 µM
[8] = second compound 0.00316 µM, first compound 0.1 µM
[9] = second compound 0.00316 µM, first compound 0.316 µM
[10] = second compound 0.00316 µM, first compound 1 µM
[11] = second compound 0.00316 µM, first compound 3.16 µM
[12] = second compound 0.00316 µM, first compound 10 µM
[13] = second compound 0.01 µM, first compound 0.0316 µM
[14] = second compound 0.01 µM, first compound 0.1 µM
[15] = second compound 0.01 µM, first compound 0.316 µM
[16] = second compound 0.01 µM, first compound 1 µM
[17] = second compound 0.01 µM, first compound 3.16 µM
[18] = second compound 0.01 µM, first compound 10 µM
[19] = second compound 0.0316 µM, first compound 0.0316 µM
[20] = second compound 0.0316 µM, first compound 0.1 µM
[21] = second compound 0.0316 µM, first compound 0.316 µM
[22] = second compound 0.0316 µM, first compound 1 µM
[23] = second compound 0.0316 µM, first compound 3.16 µM
[24] = second compound 0.0316 µM, first compound 10 µM
[25] = second compound 0.1 µM, first compound 0.0316 µM
[26] = second compound 0.1 µM, first compound 0.1 µM
[27] = second compound 0.1 µM, first compound 0.316 µM
[28] = second compound 0.1 µM, first compound 1 µM
[29] = second compound 0.1 µM, first compound 3.16 µM
[30] = second compound 0.1 µM, first compound 10 µM
[31] = second compound 0.316 µM, first compound 0.0316 µM
[32] = second compound 0.316 µM, first compound 0.1 µM
[33] = second compound 0.316 µM, first compound 0.316 µM
[34] = second compound 0.316 µM, first compound 1 µM
[35] = second compound 0.316 µM, first compound 3.16 µM
[36] = second compound 0.316 µM, first compound 10 µM
[37] = second compound 1 µM, first compound 0.0316 µM
[38] = second compound 1 µM, first compound 0.1 µM
[39] = second compound 1 µM, first compound 0.316 µM
[40] = second compound 1 µM, first compound 1 µM
[41] = second compound 1 µM, first compound 3.16 µM
[42] = second compound 1 µM, first compound 10 µM
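Note: spheroids exposed to agents for 7 days starting day 3 after seeding.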
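Throughout, for viability, T/C: percent of DMSO vehicle control viability with 100% = vehicle.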

SMILES: NC(=O)C(=Cn1cnc(-c2cc(C(F)(F)F)cc(C(F)(F)F)c2)n1)c1cncnc1
viability, T/C (compound 0.000949 µM): 111% and 110% and 105% | viability, T/C (compound 0.003 µM): 105% and 102% and 86.8% | viability, T/C (compound 0.00949 µM): 101% and 99% and 94.4% | viability, T/C (compound 0.03 µM): 101% and 91.7% and 89.8% | viability, T/C (compound 0.0949 µM): 92.7% and 89.7% and 90.7% | viability, T/C (compound 0.3 µM): 82% and 86.4% and 78.2% | IC50 (curve of compound): > 300 nM

SMILES: C#Cc1c(F)ccc2cc(O)cc(-c3ncc4c(N5CC6CCC(C5)N6)nc(OCC56CCCN5CC(F)C6)nc4c3F)c12 (stereo not given)
viability, T/C (compound 0.0316 µM): 95.9% and 87.4% and 92.5% | viability, T/C (compound 0.1 µM): 77.6% and 80.5% and 82.3% | viability, T/C (compound 0.316 µM): 68.5% and 59.4% and 65.4% | viability, T/C (compound 1 µM): 64.9% and 53.9% and 55.5% | viability, T/C (compound 3.16 µM): 55.5% and 55.7% and 51.2% | viability, T/C (compound 10 µM): 41% and 37.7% and 39.6% | IC50 (curve of compound): 4300 nM and 2360 nM and 2430 nM

SMILES: O=C(c1cc(Cc2n[nH]c(=O)c3ccccc23)ccc1F)N1CCN(C(=O)C2CC2)CC1
viability, T/C (compound 0.0316 µM): 98.8% and 105% and 96.8% | viability, T/C (compound 0.1 µM): 111% and 109% and 90.9% | viability, T/C (compound 0.316 µM): 99.9% and 95% and 96.8% | viability, T/C (compound 1 µM): 101% and 97.8% and 111% | viability, T/C (compound 3.16 µM): 105% and 104% and 106% | viability, T/C (compound 10 µM): 102% and 100% and 83.9% | IC50 (curve of compound): > 10000 nM

Second part, led by results:

IC50 [1]: 333 nM | IC50 [2]: > 10000 nM | IC50 [3]: > 10000 nM | IC50 [4]: > 10000 nM | IC50 [5]: > 10000 nM | IC50 [6]: > 10000 nM
SMILES: O=C(c1cc(Cc2n[nH]c(=O)c3ccccc23)ccc1F)N1CCN(C(=O)C2CC2)CC1 + CNC(C)C(=O)NC1CN(S(=O)(=O)c2cccc(S(=O)(=O)N3CCC4CCC(C(=O)NC(c5ccccc5)c5ccccc5)N4C(=O)C(NC(=O)C(C)NC)C3)c2)CCC2CCC(C(=O)NC(c3ccccc3)c3ccccc3)N2C1=O
viability, T/C [7]: 54.7% | viability, T/C [8]: 47.2% | viability, T/C [9]: 49.1% | viability, T/C [10]: 49.9% | viability, T/C [11]: 40.7% | viability, T/C [12]: 28.4% | viability, T/C [13]: 94.2% | viability, T/C [14]: 86.3% | viability, T/C [15]: 93.2% | viability, T/C [16]: 96% | viability, T/C [17]: 113% | viability, T/C [18]: 104% | viability, T/C [19]: 103% | viability, T/C [20]: 96.2% | viability, T/C [21]: 108% | viability, T/C [22]: 99.6% | viability, T/C [23]: 101% | viability, T/C [24]: 89.8% | viability, T/C [25]: 99.8% | viability, T/C [26]: 101% | viability, T/C [27]: 99.2% | viability, T/C [28]: 96.5% | viability, T/C [29]: 99.2% | viability, T/C [30]: 102% | viability, T/C [31]: 105% | viability, T/C [32]: 103% | viability, T/C [33]: 102% | viability, T/C [34]: 94.8% | viability, T/C [35]: 99% | viability, T/C [36]: 91.1% | viability, T/C [37]: 81.9% | viability, T/C [38]: 78.3% | viability, T/C [39]: 93.5% | viability, T/C [40]: 85.1% | viability, T/C [41]: 95.7% | viability, T/C [42]: 65.4%

IC50 (curve of first compound, second compound 0.03 µM): 1160 nM | IC50 (curve of first compound, second compound 0.0949 µM): 2200 nM | IC50 (curve of first compound, second compound 0.3 µM): 1630 nM | IC50 (curve of first compound, second compound 0.949 µM): 2190 nM | IC50 (curve of first compound, second compound 3 µM): 593 nM
SMILES: C#Cc1c(F)ccc2cc(O)cc(-c3ncc4c(N5CC6CCC(C5)N6)nc(OCC56CCCN5CC(F)C6)nc4c3F)c12 (stereo not given) + CCN1C(C(=O)NC23CCC(C(=O)O)(CC2)CC3)C(c2cccc(Cl)c2F)C2(C(=O)Nc3cc(Cl)ccc32)C12CCCCC2
viability, T/C (second compound 0.03 µM, first compound 0.0316 µM): 88% | viability, T/C (second compound 0.03 µM, first compound 0.1 µM): 81.7% | viability, T/C (second compound 0.03 µM, first compound 0.316 µM): 64% | viability, T/C (second compound 0.03 µM, first compound 1 µM): 50% | viability, T/C (second compound 0.03 µM, first compound 3.16 µM): 48.4% | viability, T/C (second compound 0.03 µM, first compound 10 µM): 40% | viability, T/C (second compound 0.0949 µM, first compound 0.0316 µM): 88.8% | viability, T/C (second compound 0.0949 µM, first compound 0.1 µM): 84.8% | viability, T/C (second compound 0.0949 µM, first compound 0.316 µM): 74.5% | viability, T/C (second compound 0.0949 µM, first compound 1 µM): 55.2% | viability, T/C (second compound 0.0949 µM, first compound 3.16 µM): 49.7% | viability, T/C (second compound 0.0949 µM, first compound 10 µM): 36.2% | viability, T/C (second compound 0.3 µM, first compound 0.0316 µM): 88.5% | viability, T/C (second compound 0.3 µM, first compound 0.1 µM): 83.5% | viability, T/C (second compound 0.3 µM, first compound 0.316 µM): 73.4% | viability, T/C (second compound 0.3 µM, first compound 1 µM): 51.2% | viability, T/C (second compound 0.3 µM, first compound 3.16 µM): 49.3% | viability, T/C (second compound 0.3 µM, first compound 10 µM): 39.3% | viability, T/C (second compound 0.949 µM, first compound 0.0316 µM): 103% | viability, T/C (second compound 0.949 µM, first compound 0.1 µM): 80.8% | viability, T/C (second compound 0.949 µM, first compound 0.316 µM): 72.8% | viability, T/C (second compound 0.949 µM, first compound 1 µM): 55.7% | viability, T/C (second compound 0.949 µM, first compound 3.16 µM): 48.2% | viability, T/C (second compound 0.949 µM, first compound 10 µM): 36.9% | viability, T/C (second compound 3 µM, first compound 0.0316 µM): 73.6% | viability, T/C (second compound 3 µM, first compound 0.1 µM): 74.3% | viability, T/C (second compound 3 µM, first compound 0.316 µM): 56.6% | viability, T/C (second compound 3 µM, first compound 1 µM): 45.2% | viability, T/C (second compound 3 µM, first compound 3.16 µM): 44.9% | viability, T/C (second compound 3 µM, first compound 10 µM): 37.8%

IC50 [1]: 5510 nM | IC50 [2]: 4850 nM | IC50 [3]: 4250 nM | IC50 [4]: 4110 nM | IC50 [5]: 3520 nM | IC50 [6]: 2560 nM
SMILES: C=C(F)C(=O)N1CCN(c2nc(OCC3CCCN3C)nc3c2CCN(c2cccc4cccc(Cl)c24)C3)CC1CC#N (stereo not given) + CNC(C)C(=O)NC1CN(S(=O)(=O)c2cccc(S(=O)(=O)N3CCC4CCC(C(=O)NC(c5ccccc5)c5ccccc5)N4C(=O)C(NC(=O)C(C)NC)C3)c2)CCC2CCC(C(=O)NC(c3ccccc3)c3ccccc3)N2C1=O
viability, T/C [7]: 101% | viability, T/C [8]: 104% | viability, T/C [9]: 103% | viability, T/C [10]: 85.6% | viability, T/C [11]: 94.4% | viability, T/C [12]: 2.3% | viability, T/C [13]: 98.8% | viability, T/C [14]: 100% | viability, T/C [15]: 94.9% | viability, T/C [16]: 101% | viability, T/C [17]: 77.3% | viability, T/C [18]: 3.86% | viability, T/C [19]: 102% | viability, T/C [20]: 102% | viability, T/C [21]: 104% | viability, T/C [22]: 104% | viability, T/C [23]: 67.2% | viability, T/C [24]: 0.24% | viability, T/C [25]: 96.1% | viability, T/C [26]: 101% | viability, T/C [27]: 92.2% | viability, T/C [28]: 87.2% | viability, T/C [29]: 64.3% | viability, T/C [30]: 3.14% | viability, T/C [31]: 95.4% | viability, T/C [32]: 90.3% | viability, T/C [33]: 83.4% | viability, T/C [34]: 79% | viability, T/C [35]: 56.3% | viability, T/C [36]: 0.25% | viability, T/C [37]: 84.5% | viability, T/C [38]: 75.3% | viability, T/C [39]: 82.5% | viability, T/C [40]: 66.4% | viability, T/C [41]: 46.3% | viability, T/C [42]: 0.27%
